Columns and labels:
[1] = target: T1, c-Met (Homo sapiens, UniProt P08581); assay: GTL-16 c-Met autophosphorylation measured by AlphaScreen detection; assay type: cell-based; conditions: GTL-16 cells, 1 h incubation, AlphaScreen p-c-Met; read-out: GTL-16 IC50 c-Met phosphorylation
T1 construct: adapted to measure the phosphorylation of endogenous cellular proteins in cell lysates; endogenous in cells; host or cells: GTL-16
Procedure: (§1) C-Met Dependent Cellular Assays
(§2) A number of compounds of the present invention were assayed in a c-Met dependent proliferation and phosphorylation assay as follows.
GTL-16 c-Met autophosphorylation measured by AlphaScreen® detection: the human MET-amplified gastric cancer cells GTL-16 were plated in 384-well plates at a density of 10′000 cells in 20 ul complete growth medium (DMEM high glucose supplemented with 10% (v/v) heat inactivated fetal calf serum and of 1 mM sodium pyruvate) and were incubated at […]/5% CO2/95% humidity for 20 h. The cells were washed and the 30 ul assay buffer (DMEM high glucose, 1 mM sodium pyruvate, 0.1% bovine serum albumine) was added. Compounds were diluted in 384-well compound plates to obtain 8-point serial dilutions for 40 test compounds in 90% DMSO, as well as a reference compound plus 16 high- and 16 low (inhibited) controls. These compound plates were prediluted 1:200 in assay buffer into a compound predilution plate and 10 ul of prediluted compound solution were transferred to the cell plate using a 384-well pipettor, resulting in a final DMSO concentration of 0.11%. Cells were incubated for 1 h at […]/5% CO2/95% humidity. The supernatant was removed, the cells were lysed in 25 ul of RIPA [radio immuno precipitation assay] lysis buffer supplemented with 2 mM sodium vanadate and a protease inhibitor cocktail, and cell plates were stored at −80° C.
For detection of p-c-Met, an AlphaScreen®-based assay was used. AlphaScreen® (Amplified Luminescent Proximity Homogeneous Assay, ALPHA, Perkin Elmer, U.S.A) is a non-radioactive bead-based proximity assay technology to study biomolecular interactions in a homogenous microtiter plate format. This technique has been adapted to measure the phosphorylation of endogenous cellular proteins in cell lysates by the use of specific antibody pairs against the total protein and a phospho-specific epitope. 5 ul of cell lysate was transferred to 384-well low volume Proxiplates for detection using a 384-well pipettor. First, 5 ul of a premix of an anti-c-Met antibody (0.25 ug/ml f.c.), a biotinylated PY20 antibody (phosphotyrosine antibody, 0.05 ug/ml f.c.) and AlphaScreen® Protein A-coupled acceptor beads (10 ug/ml f.c.) in RIPA buffer supplemented with 0.25% (v/w) TOP BLOCK, 2 mM sodium vanadate, and a protease inhibitor cocktail and was added, the plate was sealed, and incubated on a plate shaker for 2 hours at room temperature. Second, 2 ul of dilution buffer containing AlphaScreen® Streptavidin-coated donor beads (10 ug/ml f.c.) in RIPA buffer was added, and the plate was incubated on plate shaker as above for a further 2 hours. The plate was read on an AlphaScreen® compatible plate reader, using standard AlphaScreen® settings.

[2] = test system: MET-amplified gastric cancer cell line GTL-16; assay: GTL-16 proliferation assay (MTS); assay type: cell-based; conditions: Homo sapiens, GTL-16 cells, 72 h incubation
Procedure: as §1, §2
GTL-16 proliferation assay: the MET-amplified gastric cancer cell line GTL-16 was grown under standard cell culture conditions in DMEM [Dulbecco's Modified Eagle Medium] (high glucose) supplemented with 10% heat-inactivated fetal calf serum and 2 mM L-glutamine. For proliferation assays, cells were seeded at 3000 per well in 96-well-plates. 24 h later, a 10-point dilution series of each compound (3-fold steps, ranging from […]) was prepared in DMSO. Compound were then diluted 1000-fold in growth media in two steps and added to cells in triplicates, resulting in a final volume of […] per well and maximal final compound concentrations of […]. A DMSO-only control was included. Cells were incubated for 72 h and the amount of viable cells was then measured by adding […] of MTS reagent (CellTiter 96® AQueous Non-Radioactive Cell Proliferation Assay, Promega), further incubation for 30′, and reading the optical density at 490 nm.

[3] = target: T2, c-Met receptor tyrosine kinase, GST-c-Met(969-1390) (Homo sapiens, UniProt P08581); assay: EPK c-Met profiling assay (LanthaScreen TR-FRET kinase assay); assay type: biochemical; conditions: 2 μM ATP, 0.3 nM enzyme, 60 minutes at room temperature
T2 construct: made in house
Procedure: A number of compounds of the present invention were assayed in an antibody based kinase phosphorylation assay as follows.
Epk c-Met Profiling Assay:
The EPK kinase assay for c-Met receptor tyrosine kinase was developed, using the purified recombinant GST-fusion protein, containing the cytoplasmic domain of the enzyme. GST-c-Met(969-1390) was purified by affinity chromatography.
The kinase assay is based on the LanthaScreen™ technology. LanthaScreen™ is the detection of Time-Resolved Fluorescence Resonance Energy Transfer (TR-FRET) using lanthanide chelates to measure interactions between various binding partners. In a TR-FRET kinase assay, a long-lifetime lanthanide donor species is conjugated to an antibody that specifically binds to a phosphorylated product of a kinase reaction that is labeled with a suitable acceptor fluorophore. This antibody-mediated interaction brings the lanthanide donor and the acceptor into proximity such that resonance energy transfer can take place, resulting in a detectible increase in the FRET signal.
The kinase reactions were performed in 384 well microtiter plates in a total reaction volume of 9.05 μL. The assay plates were prepared with 0.05 μL per well of test compound in the appropriate test concentration, as described under “preparation of compound dilutions”. The reactions were started by combining 4.5 μL of ATP solution with 4.5 μL of enzyme-substrate mix (consisting of kinase and substrate). The final concentrations in the kinase reactions were 35 mM Tris/HCl, 1 mM DTT, 0.025% Tween20, 10 μM sodium orthovanadate, 0.25% BSA, 0.6% DMSO, 10 mM MgCl2, 3 mM MnCl2, 2 μM ATP, 50 nM Fluorescein-PolyEAY, and 0.3 nM enzyme.
The reactions were incubated for 60 minutes at room temperature and stopped by adding 4.5 μL of stop buffer (50 mM EDTA, 0.04% NP40, 20 mM Tris/HCl).
Subsequently 4.5 μL of detection mix (50 mM Tris/HCl, 2 mM DTT, 0.05% Tween20, 20 μM sodium orthovanadate, 1% BSA, 1.72 μg/mL Tb-PY20 antibody) were added to the stopped reactions. After 30 minutes incubation at room temperature, the plates were measured in a BMG Pherastar fluorescence reader. The effect of compound on the enzymatic activity was in all assays obtained from the linear progress curves and determined from one reading (end point measurement).
Preparation of Compound Dilutions
Test compounds were dissolved in DMSO (10 mM) and transferred into 1.4 mL flat bottom or V-shaped Matrix tubes carrying a unique 2D matrix. The stock solutions were stored at −20° C. if not used immediately. For the test procedure the vials were defrosted and identified by a scanner whereby a working sheet was generated that guided the subsequent working steps.
Compound dilutions were made in 96 well plates. This format enabled the assay of maximally 40 individual test compounds at 8 concentrations (single points) including 4 reference compounds. The dilution protocol included the production of “pre-dilution plates”, “master plates” and “assay plates”.
Pre-dilution plates: 96 polypropylene well plates were used as pre-dilution plates. A total of 4 pre-dilution plates were prepared including 10 test compounds each on the plate positions A1-A10, one standard compound at A11 and one DMSO control at A12. All dilution steps were done on a HamiltonSTAR robot.
Master plates: 100 μL of individual compound dilutions including standard compound and controls of the 4 “pre-dilution plates” were transferred into a 384 “master plate” including the following concentrations 1′820, 564, 182, 54.6, 18.2, 5.46, 1.82 and 0.546 μM, respectively in 90% of DMSO.
Assay plates: Identical “assay plates” were then prepared by pipetting 50 nL each of compound dilutions of the “master plates” into 384-well “assay plates” by means of a HummingBird 384-channel dispenser. These plates were used directly for the assay which was performed in a total volume of 9.05 μL. […]

T1 sequence (P08581 25-1390): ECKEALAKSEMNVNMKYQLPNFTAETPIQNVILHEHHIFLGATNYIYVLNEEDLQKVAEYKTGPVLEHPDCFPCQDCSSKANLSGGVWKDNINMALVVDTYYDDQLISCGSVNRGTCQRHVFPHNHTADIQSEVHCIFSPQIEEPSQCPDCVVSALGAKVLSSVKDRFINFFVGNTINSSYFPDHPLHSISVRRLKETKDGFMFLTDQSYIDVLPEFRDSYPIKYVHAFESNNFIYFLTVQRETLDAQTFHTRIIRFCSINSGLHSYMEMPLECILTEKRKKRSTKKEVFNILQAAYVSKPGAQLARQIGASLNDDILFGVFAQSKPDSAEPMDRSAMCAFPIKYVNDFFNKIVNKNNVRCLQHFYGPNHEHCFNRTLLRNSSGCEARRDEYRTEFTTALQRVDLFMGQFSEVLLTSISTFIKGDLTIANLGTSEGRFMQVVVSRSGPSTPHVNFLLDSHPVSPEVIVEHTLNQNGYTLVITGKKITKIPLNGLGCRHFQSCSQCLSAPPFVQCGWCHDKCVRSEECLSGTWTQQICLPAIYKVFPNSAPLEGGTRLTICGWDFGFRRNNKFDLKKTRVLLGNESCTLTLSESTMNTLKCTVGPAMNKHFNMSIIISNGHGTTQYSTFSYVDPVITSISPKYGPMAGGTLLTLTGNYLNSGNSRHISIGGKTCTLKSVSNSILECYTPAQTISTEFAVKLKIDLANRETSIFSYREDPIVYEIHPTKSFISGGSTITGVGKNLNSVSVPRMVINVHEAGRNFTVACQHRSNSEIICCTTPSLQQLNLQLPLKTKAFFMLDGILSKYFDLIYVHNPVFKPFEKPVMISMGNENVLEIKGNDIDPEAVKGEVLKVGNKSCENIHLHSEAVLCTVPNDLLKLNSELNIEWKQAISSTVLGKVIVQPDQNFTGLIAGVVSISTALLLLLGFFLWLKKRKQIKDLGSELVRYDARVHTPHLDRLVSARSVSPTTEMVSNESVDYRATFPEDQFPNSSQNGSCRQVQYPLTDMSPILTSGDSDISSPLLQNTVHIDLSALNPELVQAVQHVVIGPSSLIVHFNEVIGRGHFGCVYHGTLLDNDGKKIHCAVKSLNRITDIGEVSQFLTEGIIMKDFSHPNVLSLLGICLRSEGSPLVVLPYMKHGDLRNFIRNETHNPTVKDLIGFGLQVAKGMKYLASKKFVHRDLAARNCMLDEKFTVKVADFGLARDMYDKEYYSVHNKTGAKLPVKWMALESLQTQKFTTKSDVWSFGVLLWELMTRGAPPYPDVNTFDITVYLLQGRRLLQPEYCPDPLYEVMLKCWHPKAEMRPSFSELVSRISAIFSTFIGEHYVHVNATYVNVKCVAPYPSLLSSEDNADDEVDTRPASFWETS
T2 sequence (P08581 969-1390): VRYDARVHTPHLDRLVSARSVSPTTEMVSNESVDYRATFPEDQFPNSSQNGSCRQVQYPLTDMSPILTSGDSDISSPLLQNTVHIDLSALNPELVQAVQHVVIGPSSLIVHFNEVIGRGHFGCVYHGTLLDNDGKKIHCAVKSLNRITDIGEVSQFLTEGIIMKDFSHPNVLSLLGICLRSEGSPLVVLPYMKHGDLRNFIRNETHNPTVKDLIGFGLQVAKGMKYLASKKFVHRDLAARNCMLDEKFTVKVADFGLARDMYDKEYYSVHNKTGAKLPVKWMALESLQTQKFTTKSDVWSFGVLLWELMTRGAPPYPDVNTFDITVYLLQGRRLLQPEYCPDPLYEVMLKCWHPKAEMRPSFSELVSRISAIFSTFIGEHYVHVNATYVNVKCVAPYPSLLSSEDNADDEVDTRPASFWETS

| Compound | IC50 [1] | IC50 [2] | IC50 [3] |
| --- | --- | --- | --- |
| CC(c1cc2cccnc2cc1F)c1cnc2ccc(N3CCN(C)C(=O)C3)nn12 (racemic) [Example 40, (rac)-4-{3-[1-(7-Fluoro-quinolin-6-yl)-ethyl]-imidazo[1,2-b]pyridazin-6-yl}-1-methyl-piperazin-2-one] | 11 nM | 147 nM | 39 nM |
| CC(c1cc2cccnc2cc1F)c1cnc2ccc(N3CCNC(=O)C3)nn12 (racemic) [Example 41, (rac)-4-{3-[1-(7-Fluoro-quinolin-6-yl)-ethyl]-imidazo[1,2-b]pyridazin-6-yl}-piperazin-2-one] | < 3 nM | 49 nM | 23 nM |
| CC(=O)N1CCN(c2ccc3ncc(C(C)c4cc5cccnc5cc4F)n3n2)CC1 (racemic) [Example 42, (rac)-1-(4-{3-[1-(7-Fluoro-quinolin-6-yl)-ethyl]-imidazo[1,2-b]pyridazin-6-yl}-piperazin-1-yl)ethanone] | 39 nM | 193 nM | 49 nM |
| CC(c1ccc2ncccc2c1F)c1cnc2ccc(N3CCN(C)C(=O)C3)nn12 (racemic) [Example 46, (rac)-4-{3-[1-(5-Fluoro-quinolin-6-yl)-ethyl]-imidazo[1,2-b]pyridazin-6-yl}-1-methyl-piperazin-2-one] | 15 nM | 47 nM | 30 nM |
| CC(c1ccc2ncccc2c1F)c1cnc2ccc(N3CCNC(=O)C3)nn12 (racemic) [Example 47, (rac)-4-{3-[1-(5-Fluoro-quinolin-6-yl)-ethyl]-imidazo[1,2-b]pyridazin-6-yl}-piperazin-2-one] | 5.5 nM | 19 nM | 15 nM |
| CC(=O)N1CCN(c2ccc3ncc(C(C)c4ccc5ncccc5c4F)n3n2)CC1 (racemic) [Example 48, (rac)-1-(4-{3-[1-(5-Fluoro-quinolin-6-yl)-ethyl]-imidazo[1,2-b]pyridazin-6-yl}-piperazin-1-yl)ethanone] | 35 nM | 168 nM | 140 nM |
| CC(c1c(F)cc2c(cnn2C)c1F)c1cnc2ccc(N3CCN(C)C(=O)C3)nn12 (racemic) [Example 49, (rac)-4-(3-(1-(4,6-difluoro-1-methyl-1H-indazol-5-yl)ethyl)imidazo[1,2-b]pyridazin-6-yl)-1-methylpiperazin-2-one] | 6.5 nM | 29 nM | 16 nM |
| CC(c1c(F)cc2c(cnn2C)c1F)c1cnc2ccc(N3CCNC(=O)C3)nn12 (racemic) [Example 51] | 8 nM | 16 nM | 22 nM |
| CC(c1c(F)cc2c(cnn2C(C)C)c1F)c1cnc2ccc(N3CCN(C)C(=O)C3)nn12 (racemic) [Example 56, (rac)-4-(3-(1-(4,6-difluoro-1-isopropyl-1H-indazol-5-yl)ethyl)imidazo[1,2-b]pyridazin-6-yl)-1-methylpiperazin-2-one] | 7 nM | 49 nM | 27 nM |
| CC(c1c(F)cc2c(cnn2C(C)C)c1F)c1cnc2ccc(N3CCNC(=O)C3)nn12 (racemic) [Example 57, (rac)-4-(3-(1-(4,6-difluoro-1-isopropyl-1H-indazol-5-yl)ethyl)imidazo[1,2-b]pyridazin-6-yl)piperazin-2-one] | 9 nM | 36 nM | 17 nM |
| CC1C(=O)NCCN1c1ccc2ncc([C@@H](C)c3c(F)cc4ncccc4c3F)n2n1 (mixture of isomers) [Example 58, (rac)-4-{3-[(S)-1-(5,7-Difluoro-quinolin-6-yl)-ethyl]-imidazo[1,2-b]pyridazin-6-yl}-3-methyl-piperazin-2-one] | 3.7 nM | 7.1 nM | 2.7 nM |
| C[C@@H](c1c(F)cc2ncccc2c1F)c1cnc2ccc(N3CCN(C)CC3)nn12 [Example 9, 5,7-Difluoro-6-{(S)-1-[6-(4-methyl-piperazin-1-yl)-imidazo[1,2-b]pyridazin-3-yl]-ethyl}-quinoline] | 2.2 nM | 10 nM | 2.9 nM |

From US8389526B2, “3-heteroarylmethyl-imidazo[1,2-b]pyridazin-6-yl derivatives” (Novartis AG, priority 2009, dated 2013)
